Laboratory results: ChEMBL document CHEMBL4808219, “Exploration of Benzo[b]carbazole-6,11-diones as anticancer agents: Synthesis and studies of hTopoIIα inhibition and apoptotic effects” (Bioorg Med Chem Lett, 2021)
The source made the active and inactive calls. No cut-off for these calls is given here.

Experiments:
MCF7 = assay: Cytotoxicity against human MCF7 cells assessed as reduction in cell viability incubated for 48 hrs by MTT assay; format: functional, cell-based; details: Homo sapiens, MCF7, 48 h; read-out: IC50
MDA-MB-231 [1] = assay: Cytotoxicity against human MDA-MB-231 cells assessed as increase in deformation and shrinkage of nuclei by DAPI staining-based fluorescence microscopic analysis; format: functional, cell-based; details: dose 0.5-2.5 µM
MDA-MB-231 [2] = assay: Cytotoxicity against human MDA-MB-231 cells assessed as apoptotic nuclei at 4 uM by DAPI staining based fluorescence microscopic analysis (reference value: 4.17 to 6.67%); format: functional
MDA-MB-231 [3] = assay: Cytotoxicity against human MDA-MB-231 cells assessed as apoptotic nuclei at 5 uM by DAPI staining based fluorescence microscopic analysis (reference value: 4.17 to 6.67%); format: functional
MDA-MB-231 [4] = assay: Cytotoxicity against human MDA-MB-231 cells assessed as normal nuclei at 2 uM by DAPI staining based fluorescence microscopic analysis (reference value: 85.71 to 95.83%); format: functional
MDA-MB-231 [5] = assay: Cytotoxicity against human MDA-MB-231 cells assessed as normal nuclei at 5 uM by DAPI staining based fluorescence microscopic analysis (reference value: 93.33 to 95.83%); format: functional
HEK-293T = assay: Cytotoxicity against human HEK293T cells assessed as reduction in cell viability incubated for 48 hrs by MTT assay; format: cell-based
MDA-MB-231 [6] = assay: Cytotoxicity against human MDA-MB-231 cells assessed as normal nuclei at 1 uM by DAPI staining based fluorescence microscopic analysis (reference value: 85.71 to 95.83%); format: functional
MDA-MB-231 [7] = assay: Induction of apoptosis in human MDA-MB-231cells as increase in cleaved PARP1 level by measuring fold change in cleaved PARP1 expression by Western blot analysis relative to control; format: functional
MDA-MB-231 [8] = assay: Induction of apoptosis in human MDA-MB-231 cells assessed as upregulation of Bax level by measuring fold change in Bax expression by Western blot analysis relative to control; format: functional
MDA-MB-231 [9] = assay: Cytotoxicity against human MDA-MB-231 cells assessed as normal nuclei at 4 uM by DAPI staining based fluorescence microscopic analysis (reference value: 93.33 to 95.83%); format: functional
MDA-MB-231 [10] = assay: Genotoxicity in human MDA-MB-231 cells assessed as induction of DNA damage at 3 uM incubated for 24 hrs by comet assay; format: functional, cell-based
MDA-MB-231 [11] = assay: Induction of apoptosis in human MDA-MB-231cells assessed as downregulation of Bcl-xl level by measuring fold change in Bcl-xl expression by Western blot analysis relative to control; format: functional
MDA-MB-231 [12] = assay: Cytotoxicity against human MDA-MB-231 cells assessed as apoptotic nuclei at 3 uM by DAPI staining based fluorescence microscopic analysis (reference value: 4.17 to 6.67%); format: functional
MDA-MB-231 [13] = assay: Cytotoxicity against human MDA-MB-231 cells assessed as normal nuclei at 3 uM by DAPI staining based fluorescence microscopic analysis (reference value: 93.33 to 95.83%); format: functional
MDA-MB-231 [14] = assay: Cytotoxicity against human MDA-MB-231 cells assessed as apoptotic nuclei at 1 uM by DAPI staining based fluorescence microscopic analysis (reference value: 4.17 to 14.29%); format: functional
[15] = Cytotoxicity against human H357 cells assessed as reduction in cell viability incubated for 48 hrs by MTT assay; format: functional, cell-based; details: Homo sapiens, H357, 48 h; read-out: IC50
MDA-MB-231 [16] = assay: Cytotoxicity against human MDA-MB-231 cells assessed as reduction in cell survival by clonogenic assay; format: functional, cell-based
MDA-MB-231 [17] = assay: Cytotoxicity against human MDA-MB-231 cells assessed as reduction in cell viability incubated for 48 hrs by MTT assay; format: functional, cell-based; details: Homo sapiens, MDA-MB-231, 48 h; read-out: IC50
MCF-10A = assay: Cytotoxicity against human MCF-10A cells; format: cell-based
MDA-MB-231 [18] = assay: Cytotoxicity against human MDA-MB-231 cells assessed as apoptotic nuclei at 2 uM by DAPI staining based fluorescence microscopic analysis (reference value: 4.17 to 14.29%); format: functional
[19] = Downregulation of NFkappaB protein expression in human MDA-MB-231cells assessed as fold change in NF-kB expression at IC50 after 48 hrs by Western blot analysis relative to control; format: functional
MDA-MB-231 [20] = assay: Cell cycle arrest in human MDA-MB-231 cells assessed as accumulation at S phase at IC50 measured after 48 hrs by propidium iodide staining based FACS analysis (reference value: 9.2+/-0.3 %); format: functional
[21] = Upregulation of p53 protein expression in human MDA-MB-231cells assessed as fold change in p53 expression at IC50 after 48 hrs by Western blot analysis relative to control; format: functional
MDA-MB-231 [22] = assay: Induction of apoptosis in human MDA-MB-231 cells assessed as late apoptotic cells at IC50 by Annexin V/FITC-propidium iodide staining-based flow cytometric method (reference value: 1.2 +/- 0.3 %); format: functional
[23] = Downregulation of Cdc25A protein expression in human MDA-MB-231cells assessed as fold change in Cdc25A expression at IC50 after 48 hrs by Western blot analysis relative to control; format: functional
MDA-MB-231 [24] = assay: Genotoxicity in human MDA-MB-231 cells assessed as induction of DNA damage at 2 uM incubated for 24 hrs by comet assay; format: functional, cell-based
MDA-MB-231 [25] = assay: Cytotoxicity against human MDA-MB-231 cells assessed as apoptotic nuclei at 1.5 uM by DAPI staining based fluorescence microscopic analysis (reference value: 11.11 to 14.29%); format: functional
[26] = Downregulation of CDC6 protein expression in human MDA-MB-231cells assessed as fold change in CDC6 expression at IC50 after 48 hrs by Western blot analysis relative to control; format: functional
MDA-MB-231 [27] = assay: Cell cycle arrest in human MDA-MB-231 cells assessed as accumulation at sub G1 phase at IC50 measured after 48 hrs by propidium iodide staining based FACS analysis (reference value: 0.7+/-0.2 %); format: functional
[28] = Upregulation of cyclinD1 protein expression in human MDA-MB-231cells assessed as fold change in cyclin D1 expression at IC50 after 48 hrs by Western blot analysis relative to control; format: functional
MDA-MB-231 [29] = assay: Cytotoxicity against human MDA-MB-231 cells assessed as normal nuclei at 2.5 uM by DAPI staining based fluorescence microscopic analysis (reference value: 85.71 to 88.89%); format: functional
[30] = Upregulation of p21 protein expression in human MDA-MB-231cells assessed as fold change in p21 expression at IC50 after 48 hrs by Western blot analysis relative to control; format: functional
MDA-MB-231 [31] = assay: Induction of apoptosis in human MDA-MB-231 cells assessed as necrotic cells at IC50 by Annexin V/FITC-propidium iodide staining-based flow cytometric method (reference value: 4.5 +/- 0.5 %); format: functional
MDA-MB-231 [32] = assay: Cytotoxicity against human MDA-MB-231 cells assessed as normal nuclei at 1.5 uM by DAPI staining based fluorescence microscopic analysis (reference value: 85.71 to 88.89%); format: functional
MDA-MB-231 [33] = assay: Induction of apoptosis in human MDA-MB-231 cells assessed as viable cells at IC50 by Annexin V/FITC-propidium iodide staining-based flow cytometric method (reference value: 87.2 +/- 0.7 %); format: functional
MDA-MB-231 [34] = assay: Cytotoxicity against human MDA-MB-231 cells assessed as apoptotic nuclei at 2.5 uM by DAPI staining based fluorescence microscopic analysis (reference value: 11.11 to 14.29%); format: functional
MDA-MB-231 [35] = assay: Induction of apoptosis in human MDA-MB-231 cells assessed as early apoptotic cells at IC50 by Annexin V/FITC-propidium iodide staining-based flow cytometric method (reference value: 7.1 +/- 0.4 %); format: functional
[36] = Downregulation of cyclinB1 protein expression in human MDA-MB-231cells assessed as fold change in cyclin B1 expression at IC50 after 48 hrs by Western blot analysis relative to control; format: functional
MDA-MB-231 [37] = assay: Cell cycle arrest in human MDA-MB-231 cells assessed as accumulation at G2/M phase at IC50 measured after 48 hrs by propidium iodide staining based FACS analysis (reference value: 30.8+/-1.6 %); format: functional
MDA-MB-231 [38] = assay: Cytotoxicity against human MDA-MB-231 cells assessed as normal nuclei at 0.5 uM by DAPI staining based fluorescence microscopic analysis (reference value: 85.71 to 88.89%); format: functional
MDA-MB-231 [39] = assay: Cell cycle arrest in human MDA-MB-231 cells assessed as accumulation at G1 phase at IC50 measured after 48 hrs by propidium iodide staining based FACS analysis (reference value: 59.3+/-2.9 %); format: functional
MDA-MB-231 [40] = assay: Cytotoxicity against human MDA-MB-231 cells assessed as apoptotic nuclei at 0.5 uM by DAPI staining based fluorescence microscopic analysis (reference value: 11.11 to 14.29%); format: functional

O=C1C=C(Nc2cccc3ccccc23)C(=O)c2ccccc21
IC50 (MCF7): 3.1 µM
Activity (MDA-MB-231 [1]): Dose-Dependent Effect
Activity (MDA-MB-231 [2]): 74.36%
Activity (MDA-MB-231 [3]): 88.89%
Activity (MDA-MB-231 [4]): 71.43%
Activity (MDA-MB-231 [5]): 11.11%
IC50 (HEK-293T): 5.6 µM
Activity (MDA-MB-231 [6]): 88.1%
fold change (FC) (MDA-MB-231 [7]): 0.8
fold change (FC) (MDA-MB-231 [8]): 2.3
Activity (MDA-MB-231 [9]): 25.64%
Activity (MDA-MB-231 [10]): Active
fold change (FC) (MDA-MB-231 [11]): 0.4
Activity (MDA-MB-231 [12]): 55.56%
Activity (MDA-MB-231 [13]): 44.44%
Activity (MDA-MB-231 [14]): 11.9%
IC50 [15]: 5.8 µM
IC50 (MDA-MB-231 [16]): 2.4 µM
IC50 (MDA-MB-231 [17]): 3.2 µM
IC50 (MCF-10A): 101 µM
Activity (MDA-MB-231 [18]): 28.57%

CN(C1=CC(=O)c2ccccc2C1=O)c1ccccc1
fold change (FC) [19]: 0.7
IC50 (MCF7): 1.5 µM
Activity (MDA-MB-231 [1]): Dose-Dependent Effect
Activity (MDA-MB-231 [20]): 27.1%
fold change (FC) [21]: 2.5
Activity (MDA-MB-231 [22]): 4.8%
fold change (FC) [23]: 0.3
Activity (MDA-MB-231 [24]): Active
Activity (MDA-MB-231 [25]): 30.77%
Activity (MDA-MB-231 [4]): 43.59%
fold change (FC) [26]: 0.5
Activity (MDA-MB-231 [27]): 7.9%
IC50 (HEK-293T): 3.5 µM
fold change (FC) [28]: 1.5
Activity (MDA-MB-231 [6]): 72.22%
fold change (FC) (MDA-MB-231 [7]): 0.9
Activity (MDA-MB-231 [29]): 21.43%
fold change (FC) (MDA-MB-231 [8]): 2.5
fold change (FC) [30]: 2.3
Activity (MDA-MB-231 [31]): 20.7%
Activity (MDA-MB-231 [32]): 69.23%
Activity (MDA-MB-231 [33]): 52.2%
Activity (MDA-MB-231 [34]): 78.57%
Activity (MDA-MB-231 [35]): 22.3%
fold change (FC) [36]: 0.4
Activity (MDA-MB-231 [37]): 24.6%
fold change (FC) (MDA-MB-231 [11]): 0.8
Activity (MDA-MB-231 [38]): 83.33%
Activity (MDA-MB-231 [14]): 27.78%
IC50 [15]: 2 µM
Activity (MDA-MB-231 [39]): 40.4%
IC50 (MDA-MB-231 [16]): 1.2 µM
IC50 (MDA-MB-231 [17]): 2 µM
Activity (MDA-MB-231 [40]): 16.67%
IC50 (MCF-10A): 86 µM
Activity (MDA-MB-231 [18]): 56.41%
